Data set [1] deals with NQO1 activity in Hepa1c1c7 cells. As to the kind of experiment: NAD(P)H: quinone oxidoreductase-1 (NQO1) enzyme induction assay (in vitro). In kind it is cell-based, mouse. Conditions: Mus musculus, Hepa-1c1c7, NQO1 activity with 400 nM test compound as a ratio from the base without compound, about 48 hr. The method, boiled down:
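Mouse Hepa1c1c7 hepatoma cells treated 48 hr with 400 nM compound (final). NQO1 activity in lysates read by absorbance at 610 nm; value is background-subtracted activity ratio versus untreated cells.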

Data set [2] can be described thus: Measurement test of plasma drug concentration after oral administration in rats. In kind it is in vivo. Conditions: male SD rats, 10 mg/2 mL/kg in 0.5% methylcellulose; for AUC(0-t): rat, plasma, 10 mg/kg, read-out: AUC0-24. As to the method:
10 mg/2 mL/kg of the test compound suspended in 0.5% methylcellulose solution were force-fed to Male SD rats (7 weeks old, Japan SLC). Blood was collected from the jugular vein using a syringe with heparin at 0.5, 1, 2, 4, 6, and 24 hr after administration. After blood collection, to 20 μL of centrifuged plasma was added an equal volume of acetonitrile followed by 200 μL of internal standard (IS) solution. After agitation, all the supernatant after centrifugation was filtered, and the collected filtrate was used as the assay sample. Equal volumes of the test compound solution prepared in acetonitrile were added to blank plasma, and the samples processed in the same manner as above were used as samples for the calibration curve. The prepared samples were measured using LC/MS/MS, and the area under the blood concentration-time curve (AUC) was calculated from the compound concentration in plasma.

In data set [3] the target is binding between Nrf2 and Keap1 (Homo sapiens (Human), UniProt Q14145). As to the kind of experiment: FP assay (in vitro): inhibition of Nrf2-Keap1 binding by fluorescence polarization. Particulars: GST-fused human Keap1 (325-642) 20 nM, FITC-labeled Nrf2 peptide 10 nM, 2 hr at room temperature. Background: In fluorescence polarisation assays a small probe gives low polarisation when free and higher when bound to something large.
binding between Nrf2 and Keap1, sequence (Q14145 325-624 limits assumed): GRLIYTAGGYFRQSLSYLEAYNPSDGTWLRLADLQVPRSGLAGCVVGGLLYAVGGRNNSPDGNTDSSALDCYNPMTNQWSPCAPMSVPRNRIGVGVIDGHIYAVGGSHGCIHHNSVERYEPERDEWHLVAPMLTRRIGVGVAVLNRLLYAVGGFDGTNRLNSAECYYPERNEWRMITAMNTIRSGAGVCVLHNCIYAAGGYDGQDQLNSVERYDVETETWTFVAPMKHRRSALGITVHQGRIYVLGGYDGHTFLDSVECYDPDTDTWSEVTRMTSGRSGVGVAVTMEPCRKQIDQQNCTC

For the molecule `CC[C@@H]1CN(Cc2cc([C@H](CC(=O)O)c3ccc4c(nnn4C)c3C)cc3c2CCC3)S(=O)(=O)c2cc(Cl)cnc2O1` [Example 4, (3S)-3-(7-{[(4R)-8-Chloro-4-ethyl-1,1-dioxido-3,4-dihydro-2H-pyrido[2,3-b][1,4,5]oxathiazepin-2-yl]methyl}-2,3-dihydro-1H-inden-5-yl)-3-(1,4-dimethyl-1H-benzotriazol-5-yl)propanoic acid], in data set [1], the fold induction – broadly, the ratio of treated to control signal – at 0.4 µM was more than 5. Further, in data set [2], the “maximam plasma concentration” value is 0.029 µM and the AUC(0-t) is 0.05 µM·h. Moreover, the IC50 (commonly the concentration at which inhibition is half-maximal) in data set [3] was not above 10 nM.

For `CC[C@@H]1CN(Cc2cc([C@@H](CC(=O)O)c3ccc4c(nnn4C)c3C)cc3c2CCC3)S(=O)(=O)c2cc(Cl)cnc2O1` [Example 5, (3R)-3-(7-{[(4R)-8-Chloro-4-ethyl-1,1-dioxido-3,4-dihydro-2H-pyrido[2,3-b][1,4,5]oxathiazepin-2-yl]methyl}-2,3-dihydro-1H-inden-5-yl)-3-(1,4-dimethyl-1H-benzotriazol-5-yl)propanoic acid], the fold induction at 0.4 µM in data set [1] was more than 5. In data set [2], the “maximam plasma concentration” value is 0.006 µM and the AUC(0-t) turned out to be 0.035 µM·h. This molecule also came in with an IC50 in data set [3] of 10 to 30 nM.

As to `CC[C@@H]1CN(Cc2cc([C@H](CC(=O)O)c3ccc4c(nnn4C)c3C)cc3ccsc23)S(=O)(=O)c2cc(Cl)cnc2O1` [Example 7, (3S)-3-(7-{[(4R)-8-Chloro-4-ethyl-1,1-dioxido-3,4-dihydro-2H-pyrido[2,3-b][1,4,5]oxathiazepin-2-yl]methyl}-1-benzothiophen-5-yl)-3-(1,4-dimethyl-1H-benzotriazol-5-yl)propanoic acid], the fold induction at 0.4 µM in data set [1] is more than 5. In data set [2], the “maximam plasma concentration” value is 0.009 µM and the AUC(0-t) stood at 0.03 µM·h. This molecule also showed an IC50 in data set [3] not above 10 nM.

`CC[C@@H]1CN(Cc2cc([C@@H](CC(=O)O)c3ccc4c(nnn4C)c3C)cc3ccsc23)S(=O)(=O)c2cc(Cl)cnc2O1` [Example 8, (3R)-3-(7-{[(4R)-8-Chloro-4-ethyl-1,1-dioxido-3,4-dihydro-2H-pyrido[2,3-b][1,4,5]oxathiazepin-2-yl]methyl}-1-benzothiophen-5-yl)-3-(1,4-dimethyl-1H-benzotriazol-5-yl)propanoic acid]: in data set [1], the fold induction at 0.4 µM is more than 5. In addition, in data set [2], the “maximam plasma concentration” value stood at 0.005 µM and the AUC(0-t) was determined as 0.023 µM·h. The same molecule gave an IC50 in data set [3] not above 10 nM.

For the molecule `CC[C@@H]1CN(Cc2cc([C@H](CC(=O)O)c3cc(OC(F)(F)F)c4c(nnn4C)c3C)cc3c2CCC3)S(=O)(=O)c2cc(Cl)cnc2O1` [Example 100, (3S)-3-(7-{[(4R)-8-Chloro-4-ethyl-1,1-dioxido-3,4-dihydro-2H-pyrido[2,3-b][1,4,5]oxathiazepin-2-yl]methyl}-2,3-dihydro-1H-inden-5-yl)-3-[1,4-dimethyl-7-(trifluoromethoxy)-1H-benzotriazol-5-yl]propanoic acid], the fold induction at 0.4 µM in data set [1] was more than 5. Besides, the IC50 in data set [3] was not above 10 nM.

`CC[C@@H]1CN(Cc2cc([C@@H](CC(=O)O)c3cc(OC(F)(F)F)c4c(nnn4C)c3C)cc3c2CCC3)S(=O)(=O)c2cc(Cl)cnc2O1` [Example 101, (3R)-3-(7-{[(4R)-8-Chloro-4-ethyl-1,1-dioxido-3,4-dihydro-2H-pyrido[2,3-b][1,4,5]oxathiazepin-2-yl]methyl}-2,3-dihydro-1H-inden-5-yl)-3-[1,4-dimethyl-7-(trifluoromethoxy)-1H-benzotriazol-5-yl]propanoic acid]: in data set [1], the fold induction at 0.4 µM is more than 5. Moreover, the concentration for half-maximal inhibition (IC50) in data set [3] was not above 10 nM.

With `CC[C@@H]1CN(Cc2cc(C(CC(=O)O)c3cc(C4CC4)c4c(nnn4C)c3C)cc3c2OCC3)S(=O)(=O)c2cc(Cl)cnc2O1` (stereo partly drawn) [Example 102, 3-(7-{[(4R)-8-Chloro-4-ethyl-1,1-dioxido-3,4-dihydro-2H-pyrido[2,3-b][1,4,5]oxathiazepin-2-yl]methyl}-2,3-dihydro-1-benzofuran-5-yl)-3-(7-cyclopropyl-1,4-dimethyl-1H-benzotriazol-5-yl)propanoic acid], in data set [1], the fold induction at 0.4 µM was more than 5. Further, in data set [3], the IC50 is not above 10 nM.

With `CC[C@@H]1CN(Cc2cc(C(CC(=O)O)c3cc(C4CC4)c4c(nnn4C)c3C)cc3[nH]ccc23)S(=O)(=O)c2cc(Cl)cnc2O1` (stereo partly drawn) [Example 103, 3-(4-{[(4R)-8-Chloro-4-ethyl-1,1-dioxido-3,4-dihydro-2H-pyrido[2,3-b][1,4,5]oxathiazepin-2-yl]methyl}-1H-indol-6-yl)-3-(7-cyclopropyl-1,4-dimethyl-1H-benzotriazol-5-yl)propanoic acid], the fold induction at 0.4 µM in data set [1] was more than 5. The same molecule registered an IC50 in data set [3] not above 10 nM.

Consider `CC[C@@H]1CN(Cc2cc(C(CC(=O)O)c3cc(C4CC4)c4c(nnn4C)c3C)cc3[nH]ccc23)[C@@H](C)c2ncccc2O1` (stereo partly drawn) [Example 104, 3-(7-Cyclopropyl-1,4-dimethyl-1H-benzotriazol-5-yl)-3-(4-{[(2R,5S)-2-ethyl-5-methyl-2,3-dihydropyrido[2,3-f][1,4]oxazepin-4(5H)-yl]methyl}-1H-indol-6-yl)propanoic acid], for which, in data set [1], the fold induction at 0.4 µM was more than 5. In data set [3], this molecule gave an IC50 of 10 to 30 nM.

As to `CC[C@@H]1CN(Cc2cc([C@@H](CC(=O)O)c3cc(C4CC4)c4c(nnn4C)c3C)cc3c2CCC3)[C@@H](C)c2ncccc2O1` [Example 105, (3R)-3-(7-Cyclopropyl-1,4-dimethyl-1H-benzotriazol-5-yl)-3-(7-{[(2R,5S)-2-ethyl-5-methyl-2,3-dihydropyrido[2,3-f][1,4]oxazepin-4(5H)-yl]methyl}-2,3-dihydro-1H-inden-5-yl)propanoic acid], the fold induction at 0.4 µM in data set [1] is more than 5. Moreover, in data set [3], the IC50 was 10 to 30 nM.

For `CC[C@@H]1CN(Cc2cc([C@H](CC(=O)O)c3cc(C4CC4)c4c(nnn4C)c3C)cc3c2CCC3)[C@@H](C)c2ncccc2O1` [Example 106, (3S)-3-(7-Cyclopropyl-1,4-dimethyl-1H-benzotriazol-5-yl)-3-(7-{[(2R,5S)-2-ethyl-5-methyl-2,3-dihydropyrido[2,3-f][1,4]oxazepin-4(5H)-yl]methyl}-2,3-dihydro-1H-inden-5-yl)propanoic acid], the fold induction at 0.4 µM in data set [1] is more than 5. The same molecule had an IC50 in data set [3] not above 10 nM.

In the case of `CC[C@@H]1CN(Cc2cc(C(CC(=O)O)c3cc(C4CC4)c4c(nnn4C)c3C)cc3c2OCC3)[C@@H](C)c2ncccc2O1` (stereo partly drawn) [Example 107, 3-(7-Cyclopropyl-1,4-dimethyl-1H-benzotriazol-5-yl)-3-(7-{[(2R,5S)-2-ethyl-5-methyl-2,3-dihydropyrido[2,3-f][1,4]oxazepin-4(5H)-yl]methyl}-2,3-dihydro-1-benzofuran-5-yl)propanoic acid], the fold induction at 0.4 µM in data set [1] is more than 5. The molecule also had an IC50 in data set [3] of 10 to 30 nM.

Regarding `CC[C@@H]1CN(Cc2cc([C@H](CC(=O)O)c3cc(OC(F)F)c4c(nnn4C)c3C)cc3ccsc23)S(=O)(=O)c2cc(Cl)cnc2O1` [Example 108, (3S)-3-(7-{[(4R)-8-Chloro-4-ethyl-1,1-dioxido-3,4-dihydro-2H-pyrido[2,3-b][1,4,5]oxathiazepin-2-yl]methyl}-1-benzothiophen-5-yl)-3-[7-(difluoromethoxy)-1,4-dimethyl-1H-benzotriazol-5-yl]propanoic acid], in data set [1], the fold induction at 0.4 µM is more than 5. In data set [3], this molecule had an IC50 of 30 to 100 nM.

Regarding `CC[C@@H]1CN(Cc2cc(C(CC(=O)O)c3cc(C4CC4)c4c(nnn4C)c3C)cc3ccoc23)[C@@H](C)c2ncccc2O1` (stereo partly drawn) [Example 109, 3-(7-Cyclopropyl-1,4-dimethyl-1H-benzotriazol-5-yl)-3-(7-{[(2R,5S)-2-ethyl-5-methyl-2,3-dihydropyrido[2,3-f][1,4]oxazepin-4(5H)-yl]methyl}-1-benzofuran-5-yl)propanoic acid], the fold induction at 0.4 µM in data set [1] is more than 5. This molecule also displayed an IC50 in data set [3] of 30 to 100 nM.

For `CC[C@@H]1CN(Cc2cc(C(CC(=O)O)c3cc(C4CC4)c4c(nnn4C)c3C)cc3ccoc23)S(=O)(=O)c2cc(Cl)cnc2O1` (stereo partly drawn) [Example 110, 3-(7-{[(4R)-8-Chloro-4-ethyl-1,1-dioxido-3,4-dihydro-2H-pyrido[2,3-b][1,4,5]oxathiazepin-2-yl]methyl}-1-benzofuran-5-yl)-3-(7-cyclopropyl-1,4-dimethyl-1H-benzotriazol-5-yl)propanoic acid], in data set [1], the fold induction at 0.4 µM is more than 5. The IC50 in data set [3] was in the range of 30 to 100 nM.

With `CCOc1ccc2c(n1)O[C@H](CC)CN(Cc1cc([C@H](CC(=O)O)c3ccc4c(nnn4C)c3C)cc3ccsc13)S2(=O)=O` [Example 111, (3S)-3-(1,4-Dimethyl-1H-benzotriazol-5-yl)-3-(7-{[(4R)-7-ethoxy-4-ethyl-1,1-dioxido-3,4-dihydro-2H-pyrido[2,3-b][1,4,5]oxathiazepin-2-yl]methyl}-1-benzothiophen-5-yl)propanoic acid], in data set [1], the fold induction at 0.4 µM lay within 3 to 5. The IC50 in data set [3] was not above 10 nM.

Turning to `CCOc1ccc2c(n1)O[C@H](CC)CN(Cc1cc([C@@H](CC(=O)O)c3ccc4c(nnn4C)c3C)cc3ccsc13)S2(=O)=O` [Example 112, (3R)-3-(1,4-Dimethyl-1H-benzotriazol-5-yl)-3-(7-{[(4R)-7-ethoxy-4-ethyl-1,1-dioxido-3,4-dihydro-2H-pyrido[2,3-b][1,4,5]oxathiazepin-2-yl]methyl}-1-benzothiophen-5-yl)propanoic acid], the fold induction at 0.4 µM in data set [1] is 3 to 5. In data set [3], this molecule gave an IC50 not above 10 nM.

Source of the values: patent US20250092064A1, “BENZOTRIAZOLE COMPOUND” (DAIICHI SANKYO COMPANY, LIMITED, priority 2022, published 2025).
